The values that follow come from US20260216294A1, “BETA 2-ADRENERGIC RECEPTOR AGONISTS FOR TREATMENT OR PREVENTION OF MUSCLE WASTING” (ATROGI AB, priority 2023, published 2026).

In assay [1] the test system is L6-myotubes. Put plainly: Glucose uptake in differentiated L6-myotubes (Biological Example 2). It counts as cell-based. The conditions noted are these: glucose uptake in differentiated L6-myotubes; compound at 10 μM, activity relative to isoproterenol at 10 μM; read-out: Biological example 2 (GU). In outline: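 Differentiated L6 myotubes were serum-starved overnight in 0.5% fatty-acid-free BSA and then stimulated with compound or isoprenaline at 1×10^−5 M final. After 1 h 40 min cells were washed and re-dosed in glucose-free medium. Twenty minutes later, uptake of 50 nM ^3H-2-deoxyglucose over 10 min was measured by scintillation counting of NaOH lysates.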

Assay [2] has as its system L6-myotubes. Briefly: Measurement of intracellular cAMP levels in differentiated L6-myotubes (Biological Example 3). It is filed as cell-based. The conditions noted are these: 0.25 h, intracellular cAMP in differentiated L6-myotubes; compound at 10 μM, activity relative to isoproterenol at 10 μM. In outline:
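Serum-starved differentiated L6 myotubes stimulated 15 min with test compound at 1×10^−5 M final (isoprenaline as reference) in HBSS with 1% BSA, 5 mM HEPES, 1 mM IBMX, pH 7.4. Cells EtOH-extracted, lysed, and intracellular cAMP measured by AlphaScreen.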
(In general: Cyclic AMP is a second messenger, typically raised through Gs and lowered through Gi signalling.)

On to `CC12CC(C1)[C@@H]([C@@H](O)c1cncc(F)c1)N2` [Compound 221, (S)-{(S)-1-methyl-2-azabicyclo[[2.1.1]]hex-3-yl}(5-fluoro-3-pyridyl)methanol], for which the Emax at 10 µM is 50 to 75% in assay [1] and < 25% in assay [2].
The like results for `CC12CC(C1)[C@H]([C@@H](O)c1cncc(F)c1)N2` [Compound 222, (S)-{(R)-1-methyl-2-azabicyclo[[2.1.1]]hex-3-yl}(5-fluoro-3-pyridyl)methanol] were, in that order, < 25% and < 25%.
In the case of `CC12CC(C1)[C@@H]([C@H](O)c1cncc(F)c1)N2` [Compound 223, (R)-{(S)-1-methyl-2-azabicyclo[[2.1.1]]hex-3-yl}(5-fluoro-3-pyridyl)methanol], the Emax at 10 µM is 25 to 50% in assay [1] and < 25% in assay [2].
As for `CO[C@H]1CC[C@H](CCNC[C@H](O)c2cccc(F)c2)CC1` [Compound 224, (R)-1-(m-fluorophenyl)-2-{2-[(1r,4R)-4-methoxycyclohexyl]ethylamino}-1-ethanol], the figures for the Emax at 10 µM in assay [1] and in assay [2] were 25 to 50% and < 25%, respectively.
Regarding `CO[C@H]1CC[C@H](CCNC[C@H](O)c2cncc(F)c2)CC1` [Compound 225, (R)-1-(5-fluoro-3-pyridyl)-2-{2-[(1r,4R)-4-methoxycyclohexyl]ethylamino}-1-ethanol], the Emax at 10 µM in assay [1] was 50 to 75%; in assay [2], < 25%.
On the same counts, the results for `CC1(C)CC[C@H]([C@@H](O)c2cccc(N)c2F)N1` [Compound 226, (S)-[(R)-5,5-dimethyl-2-pyrrolidinyl](3-amino-2-fluorophenyl)methanol] are 25 to 50% and < 25%.
With `CC1(C)CC[C@H]([C@H](O)c2cccc(N)c2F)N1` [Compound 227, (R)-[(R)-5,5-dimethyl-2-pyrrolidinyl](3-amino-2-fluorophenyl)methanol], the Emax at 10 µM in assay [1] is > 75%; in assay [2] it was < 25%.
`CO[C@H]1CC[C@H](CNC[C@H](O)c2cccc(F)c2)CC1` [Compound 228, (R)-1-(m-fluorophenyl)-2-({[(1r,4R)-4-methoxycyclohexyl]methyl}amino)-1-ethanol]: the Emax at 10 µM in assay [1] was 50 to 75%; in assay [2], < 25%.
The like results for `CO[C@H]1CC[C@H](CNC[C@H](O)c2cncc(F)c2)CC1` [Compound 229, (R)-1-(5-fluoro-3-pyridyl)-2-({[(1r,4R)-4-methoxycyclohexyl]methyl}amino)-1-ethanol] were, in that order, 50 to 75% and < 25%.
As to `CC1(C)C[C@H]([C@H](O)c2cccc(Cl)c2)N1` [Compound 230], the Emax at 10 µM in assay [1] is > 75%; in assay [2] it was < 25%.
Turning to `CC1(C)C[C@@H]([C@@H](O)c2cccc(Cl)c2)N1` [Compound 231], the Emax at 10 µM in assay [1] was 25 to 50%; in assay [2], < 25%.
As for `CC1(C)C[C@@H]([C@H](O)c2cccc(Cl)c2)N1` [Compound 232], the Emax at 10 µM was 25 to 50% in assay [1] and < 25% in assay [2].
As to `CC1(C)C[C@H]([C@@H](O)c2cccc(Cl)c2)N1` [Compound 233, (S)-[(R)-4,4-dimethyl-2-azetidinyl](m-chlorophenyl)methanol], the Emax at 10 µM in assay [1] and in assay [2] was < 25% in each case.
Turning to `CCC[C@H]1CCCC[C@@H]([C@H](O)c2cncc(F)c2)N1` [Compound 234, (R)-[(2S,7S)-7-propyl-2-azepanyl](5-fluoro-3-pyridyl)methanol], the Emax at 10 µM is > 75% in assay [1] and < 25% in assay [2].
For the molecule `CCC[C@H]1CCCC[C@@H]([C@@H](O)c2cncc(F)c2)N1` [Compound 235, (S)-[(2S,7S)-7-propyl-2-azepanyl](5-fluoro-3-pyridyl)methanol], the Emax at 10 µM in assay [1] and in assay [2] was < 25% throughout.
With `CC1(C)CC[C@H]([C@@H](O)c2cc(F)c(N)c(F)c2)N1` [Compound 236], the Emax at 10 µM is > 75% in assay [1] and 25 to 50% in assay [2].
For `CO[C@H]1CC[C@@H](CCNC[C@H](O)c2cccc(F)c2)CC1` [Compound 237, (R)-1-(m-fluorophenyl)-2-{2-[(1s,4S)-4-methoxycyclohexyl]ethylamino}-1-ethanol], the Emax at 10 µM was 50 to 75% in assay [1] and < 25% in assay [2].
As for `CO[C@H]1CC[C@@H](CCNC[C@H](O)c2cncc(F)c2)CC1` [Compound 238, (R)-1-(5-fluoro-3-pyridyl)-2-{2-[(1s,4S)-4-methoxycyclohexyl]ethylamino}-1-ethanol], the Emax at 10 µM was > 75% in assay [1] and < 25% in assay [2].
Consider `CO[C@H]1CC[C@H](C(C)(C)NC[C@H](O)c2cccc(F)c2)CC1` [Compound 239, (R)-1-(m-fluorophenyl)-2-{1-methyl-1-[(1r,4R)-4-methoxycyclohexyl]ethylamino}-1-ethanol], for which the figures for the Emax at 10 µM in assay [1] and in assay [2] were > 75% and < 25%, respectively.
Regarding `CO[C@H]1CC[C@H](C(C)(C)NC[C@H](O)c2cncc(F)c2)CC1` [Compound 240, (R)-1-(5-fluoro-3-pyridyl)-2-{1-methyl-1-[(1r,4R)-4-methoxycyclohexyl]ethylamino}-1-ethanol], the Emax at 10 µM in assay [1] was > 75%; in assay [2], < 25%.
On the same counts, the results for `CC12CC(C1)[C@H]([C@H](O)c1cccc(N)c1F)N2` [Compound 241, (R)-{(R)-1-methyl-2-azabicyclo[2.1.1]hex-3-yl}(3-amino-2-fluorophenyl)methanol] are > 75% and < 25%.
Take `CC12CC(C1)[C@@H]([C@@H](O)c1cccc(N)c1F)N2` [Compound 242, (S)-{(S)-1-methyl-2-azabicyclo[[2.1.1]]hex-3-yl}(3-amino-2-fluorophenyl)methanol]: the Emax at 10 µM in assay [1] is 50 to 75%; in assay [2], < 25%.
On to `CC12CC(C1)[C@H]([C@@H](O)c1cccc(N)c1F)N2` [Compound 243, (S)-{(R)-1-methyl-2-azabicyclo[[2.1.1]]hex-3-yl}(3-amino-2-fluorophenyl)methanol], for which the figures for the Emax at 10 µM in assay [1] and in assay [2] were 50 to 75% and < 25%, respectively.
Turning to `CC12CC(C1)[C@@H]([C@H](O)c1cccc(N)c1F)N2` [Compound 244, (R)-{(S)-1-methyl-2-azabicyclo[[2.1.1]]hex-3-yl}(3-amino-2-fluorophenyl)methanol], the Emax at 10 µM in assay [1] was 50 to 75%; in assay [2], < 25%.
On the same counts, the results for `CO[C@H]1CC[C@@H](CNC[C@H](O)c2cccc(F)c2)CC1` [Compound 245, (R)-1-(m-fluorophenyl)-2-({[(1s,4S)-4-methoxycyclohexyl]methyl}amino)-1-ethanol] are 50 to 75% and < 25%.
In the case of `CO[C@H]1CC[C@@H](CC(C)(C)NC[C@H](O)c2cccc(F)c2)CC1` [Compound 247, (R)-2-{1,1-dimethyl-2-[(1s,4S)-4-methoxycyclohexyl]ethylamino}-1-(m-fluorophenyl)-1-ethanol], the Emax at 10 µM in assay [1] is > 75%; in assay [2], < 25%.
For the molecule `CO[C@H]1CC[C@@H](CC(C)(C)NC[C@H](O)c2cncc(F)c2)CC1` [Compound 248, (R)-2-{1,1-dimethyl-2-[(1s,4S)-4-methoxycyclohexyl]ethylamino}-1-(5-fluoro-3-pyridyl)-1-ethanol], the Emax at 10 µM in assay [1] was > 75%; in assay [2], < 25%.
In the case of `CO[C@H]1CC[C@H](CC(C)(C)NC[C@H](O)c2cccc(F)c2)CC1` [Compound 249, (R)-2-{1,1-dimethyl-2-[(1r,4R)-4-methoxycyclohexyl]ethylamino}-1-(m-fluorophenyl)-1-ethanol], the results for the Emax at 10 µM in assay [1] and in assay [2] were > 75% and < 25%, respectively.
Take `CO[C@H]1CC[C@H](CC(C)(C)NC[C@H](O)c2cncc(F)c2)CC1` [Compound 250, (R)-2-{1,1-dimethyl-2-[(1r,4R)-4-methoxycyclohexyl]ethylamino}-1-(5-fluoro-3-pyridyl)-1-ethanol]: the Emax at 10 µM in assay [1] is 50 to 75%; in assay [2], < 25%.
Take `CO[C@H]1CC[C@@H](C(C)(C)NC[C@H](O)c2cccc(F)c2)CC1` [Compound 251, (R)-1-(m-fluorophenyl)-2-{1-methyl-1-[(1s,4S)-4-methoxycyclohexyl]ethylamino}-1-ethanol]: the Emax at 10 µM in assay [1] and in assay [2] was < 25% in each case.
Regarding `CO[C@H]1CC[C@@H](C(C)(C)NC[C@H](O)c2cncc(F)c2)CC1` [Compound 252, (R)-1-(5-fluoro-3-pyridyl)-2-{1-methyl-1-[(1s,4S)-4-methoxycyclohexyl]ethylamino}-1-ethanol], the Emax at 10 µM in assay [1] and in assay [2] was < 25% each time.
On to `CC12CCC([C@@H](O)c3ccncc3F)(CC1)N2` [Compound 253, (S)-(3-fluoro-4-pyridyl)(4-methyl-7-azabicyclo[[2.2.1]]hept-1-yl)methanol], for which the Emax at 10 µM in assay [1] and in assay [2] was < 25% throughout.
Regarding `CC12CCC([C@H](O)c3ccncc3F)(CC1)N2` [Compound 254, (R)-(3-fluoro-4-pyridyl)(4-methyl-7-azabicyclo[[2.2.1]]hept-1-yl)methanol], the Emax at 10 µM in assay [1] and in assay [2] was < 25% in each case.
Turning to `CO[C@@H]1CCC[C@H](C(C)(C)NC[C@H](O)c2cccc(F)c2)C1` [Compound 255, (R)-2-{1-[(1S,3R)-3-methoxycyclohexyl]-1-methylethylamino}-1-(m-fluorophenyl)-1-ethanol], the Emax at 10 µM in assay [1] was > 75%; in assay [2], < 25%.
